Legend:
[1] = system: human dermal fibroblasts (HDFs); assay: Cell motility assay; format: cell-based; settings: HDFs from aged donors; 30 μM, 7 h
Protocol: HDFs were seeded in glass bottomed multiwell plates (Greiner, 662892), 24 h prior to imaging. Images were captured using a Zeiss CellDiscoverer 7 with a 5x/0.35NA lens with a 2× optovar using oblique mode brightfield with a Hamamatsu Fusion camera every 300 seconds for 5 h (1 ms exposure time), capturing 2 random fields per well. Cells were maintained at 37° C., 5% CO2 throughout experiments. 6 cells were analysed per field using the Manual Tracking plugin in FIJI/ImageJ, and shown as mean movement per cell recorded.

[2] = system: human dermal fibroblasts (HDFs); assay: Mitochondrial mass by Mitotracker Green staining; format: cell-based; settings: HDFs from aged donors; 30 μM, 7 h
Protocol: The Seahorse XF Cell Mito Stress Test Kit (Agilent) was used to measure oxygen consumption rates in adult dermal fibroblasts. One day prior to the assay cells were seeded at either 4000 per well or 3000 per well. Where indicated, fibroblast plates were subjected to 20Gy IR 2 h before assay. […] HDFs were stained with 100 nM Mitotracker Green for mitochondrial density measurement. The Mito Stress Test was performed as per manufacturer's guidelines on a Seahorse XF96 Extracellular Flux analyser using previously optimized conditions. Following assay completion, cells were fixed in 4% PFA for 20 minutes. PFA was then removed, and cells were washed twice with PBS. Following fixation, cells were stained with Hoescht nucleic acid stain (Invitrogen) for 10 min before being washed twice in PBS. Fluorescence was subsequently measured using the PHERAstar FSX plate reader (BMG LABTECH) at 350/460 nm for normalization purposes. Following normalization, OCR measurements were interpreted from data generated from the Agilent Seahorse Wave software version 2.6.3.5. Basal respiration data in unstressed conditions is presented. OCR measurements were further normalised to mitochondrial density to obtain ATP production (pmol/min/mitochondria).

[3] = system: p62-dependent mitophagy; assay: Luciferase-p62 clearance assay, stated for HDFs; format: cell-based, human; settings: 10 μM; HDFs as printed
Protocol: FIGS. 15A-15C show hydroxycinnamic acids (HCAs) tested in mitophagy assays in primary HDFs. […] 80,000 mixed aged Fibroblasts expressing the Su9-Halo-GFP reporter were treated for 48 h with the indicated HCAs. A change in the reporter excitation occurs because the GFP tag is quenched in the lysosome environment, indicating mitophagy.
To identify p62-dependent materials which increase mitophagy, a Luciferase-p62 Assay was established. This method provides an approach to measure the ability of a material to modulate p62-dependent mitophagy by using an inducible firefly luciferase-p62 (Fluc-p62) reporter cell system. In this assay, p62 levels are driven by doxycycline treatment. After levels increased, expression of Fluc-p62 is turned off by removal of doxycycline, materials are then added and assessed for how they affect clearance of Fluc-p62 protein, which is proportionate to cellular mitophagy rates (Kelly et al.). […]
Test materials including bioactive materials were screened in mouse embryonic fibroblasts (MEFs, Harada et al.) expressing the TET-inducible p62-fluc construct as previously described (Brown et al.). […] Subsequently, cells were treated with test materials for 48 hours in normal growth medium and analysed using ONE-Glo™+Tox Luciferase Reporter and Cell Viability Assay (Promega) by following the manufacturer's protocol.

[4] = system: human dermal fibroblasts (HDFs); assay: EdU incorporation assay; format: cell-based; settings: HDFs from aged donors; 30 μM, 7 h
[5] = system: human dermal fibroblasts (HDFs); assay: Average nuclear size by immunofluorescence microscopy; format: cell-based
Protocol: Immunofluorescence analyses were performed as described previously (Carroll et al.). In brief, cells were seeded on coverslips in 24-well plates and fixed in 4% formaldehyde in PBS for 10 min at room temperature followed by permeabilization in 0.5% Triton X-100 (Sigma-Aldrich) in PBS for 4 min at room temperature (Ki67 and p21) or in methanol for 4 min at −20° C. (LC3 and p62). Cells were then blocked for 1 h in 5% normal goat serum (Sigma-Aldrich) in PBS at room temperature and incubated with primary antibodies overnight at 4° C. Cells were washed three times and incubated with the appropriate secondary antibodies for 1 h at room temperature (Thermo Fisher Scientific, A31556 and A21235, 1:1000). Cells were washed, and coverslips were mounted on slides with Prolong Gold antifade mountant with DAPI (Invitrogen). Fluorescence images were obtained as described above. The following primary antibodies were used: rabbit anti-Ki67 (Abcam, ab 15580, 1:250), rabbit anti-p21 (CST, 2947, 1:1000), mouse anti-LC3 (NanoTools, 0260-100, 1:200) and rabbit anti-p62 (MBL, PM045, 1:500).

Question: Which results are given for CC(=O)Oc1ccc(N2C(=O)C3C(Cc4ccccc4)NC4(C(=O)Nc5c4ccc(Cl)c5C)C3C2=O)cc1 (stereo not drawn) [STOCKIN-57543]?
Answer: cell motility [1]: improving cell motility; mitochondrial mass [2]: restoring mitochondrial mass; increase p62-dependent mitophagy levels over baseline [3]: 33%; cellular proliferation capacity (EdU incorporation) [4]: restoring cellular proliferation capacity; nuclear size ([5]; HDFs from aged donors, 30 μM, 7 h): decreasing a senescence-associated increase in nuclear size; IR-associated increase in nuclear size ([5]; HDFs, treatment 5 h prior to IR): mitigating IR-associated increase in nuclear size
